Measured values as given in PMC8518114, “Safety, tolerability and pharmacokinetics of emodepside, a potential novel treatment for onchocerciasis (river blindness), in healthy male subjects” (British Journal of Clinical Pharmacology, 2021).

System: healthy male subjects
Assay: Safety: treatment-emergent adverse events, MAD study
Format: in vivo, human
Procedure: Safety was assessed by monitoring adverse events (AEs) throughout the studies that were coded using the standard Medical Dictionary for Regulatory Activities (MedDRA) dictionary (versions 19.0 [SAD part 1], 20.0 [SAD part 2] and 21.1 [MAD]). Other safety monitoring included 12‐lead electrocardiography recordings, measurement of vital signs (systolic and diastolic blood pressure and heart rate), physical and neurological (Hamilton depression rating scale[17] and Beck depression inventory‐II fastscreen[18] [SAD only], mental status examination, cranial nerves assessment and motor system examination, sensation to light touch, coordination/cerebellar function assessment, Romberg's test, gait test, daytime sleepiness assessment [SAD and MAD studies]) examinations, haematology, biochemistry and urinalysis. To minimise risks in the SAD and MAD studies, subjects were dosed sequentially using sentinels in each cohort (1 IP, 1 placebo) as per European Medicines Agency guidelines.[19] If the previous dose was well tolerated, with no safety concerns, dose escalation was decided by the Safety Review Group after reviewing safety and PK data from all available cohorts. Moreover, treatment with the highest dose in the SAD study was repeated (cohort 10) for regular ophthalmological evaluations (assessments available as supplementary information) to better characterise visual AEs observed in the SAD study. Regular ophthalmological assessments were also performed in the MAD study.

CC(C)C[C@H]1C(=O)O[C@H](Cc2ccc(N3CCOCC3)cc2)C(=O)N(C)[C@@H](CC(C)C)C(=O)O[C@H](C)C(=O)N(C)[C@@H](CC(C)C)C(=O)O[C@H](Cc2ccc(N3CCOCC3)cc2)C(=O)N(C)[C@@H](CC(C)C)C(=O)O[C@H](C)C(=O)N1C [emodepside]
Any TEAE (LSF 5 mg OD n = 6): 5 (83.3) n (%)
TEAE: Eye disorders (LSF 5 mg OD n = 6): 3 (50.0) n (%)
TEAE: Gastrointestinal disorders (LSF 5 mg OD n = 6): 2 (33.3) n (%)
TEAE: General disorders and administration site disorders (LSF 5 mg OD n = 6): 1 (16.7) n (%)
TEAE: Immune system disorders (LSF 5 mg OD n = 6): 0 n (%)
TEAE: Infections and infestations (LSF 5 mg OD n = 6): 4 (66.7) n (%)
TEAE: Injury, poisoning and procedural complications (LSF 5 mg OD n = 6): 0 n (%)
TEAE: Investigations (LSF 5 mg OD n = 6): 0 n (%)
TEAE: Metabolism and nutrition disorders (LSF 5 mg OD n = 6): 0 n (%)
TEAE: Musculoskeletal and connective tissue disorders (LSF 5 mg OD n = 6): 2 (33.3) n (%)
TEAE: Nervous system disorders (LSF 5 mg OD n = 6): 2 (33.3) n (%)
TEAE: Psychiatric disorders (LSF 5 mg OD n = 6): 2 (33.3) n (%)
TEAE: Respiratory, thoracic and mediastinal disorders (LSF 5 mg OD n = 6): 1 (16.7) n (%)
TEAE: Skin and subcutaneous tissue disorders (LSF 5 mg OD n = 6): 1 (16.7) n (%)
TEAE: Surgical and medicinal procedures (LSF 5 mg OD n = 6): 0 n (%)
Any TEAE (LSF 10 mg BID n = 6): 6 (100) n (%)
TEAE: Eye disorders (LSF 10 mg BID n = 6): 3 (50.0) n (%)
TEAE: Gastrointestinal disorders (LSF 10 mg BID n = 6): 0 n (%)
TEAE: General disorders and administration site disorders (LSF 10 mg BID n = 6): 1 (16.7) n (%)
TEAE: Immune system disorders (LSF 10 mg BID n = 6): 1 (16.7) n (%)
TEAE: Injury, poisoning and procedural complications (LSF 10 mg BID n = 6): 1 (16.7) n (%)
TEAE: Investigations (LSF 10 mg BID n = 6): 1 (16.7) n (%)
TEAE: Metabolism and nutrition disorders (LSF 10 mg BID n = 6): 0 n (%)
TEAE: Musculoskeletal and connective tissue disorders (LSF 10 mg BID n = 6): 1 (16.7) n (%)
TEAE: Nervous system disorders (LSF 10 mg BID n = 6): 0 n (%)
TEAE: Psychiatric disorders (LSF 10 mg BID n = 6): 0 n (%)
TEAE: Respiratory, thoracic and mediastinal disorders (LSF 10 mg BID n = 6): 0 n (%)
TEAE: Skin and subcutaneous tissue disorders (LSF 10 mg BID n = 6): 0 n (%)
TEAE: Surgical and medicinal procedures (LSF 10 mg BID n = 6): 0 n (%)
Any TEAE (LSF 10 mg OD n = 6): 6 (100.0) n (%)
TEAE: Eye disorders (LSF 10 mg OD n = 6): 1 (16.7) n (%)
TEAE: Gastrointestinal disorders (LSF 10 mg OD n = 6): 0 n (%)
TEAE: General disorders and administration site disorders (LSF 10 mg OD n = 6): 1 (16.7) n (%)
TEAE: Immune system disorders (LSF 10 mg OD n = 6): 0 n (%)
TEAE: Infections and infestations (LSF 10 mg OD n = 6): 4 (66.7) n (%)
TEAE: Injury, poisoning and procedural complications (LSF 10 mg OD n = 6): 0 n (%)
TEAE: Investigations (LSF 10 mg OD n = 6): 0 n (%)
TEAE: Metabolism and nutrition disorders (LSF 10 mg OD n = 6): 1 (16.7) n (%)
TEAE: Musculoskeletal and connective tissue disorders (LSF 10 mg OD n = 6): 2 (33.3) n (%)
TEAE: Nervous system disorders (LSF 10 mg OD n = 6): 0 n (%)
TEAE: Psychiatric disorders (LSF 10 mg OD n = 6): 1 (16.7) n (%)
TEAE: Respiratory, thoracic and mediastinal disorders (LSF 10 mg OD n = 6): 0 n (%)
TEAE: Skin and subcutaneous tissue disorders (LSF 10 mg OD n = 6): 1 (16.7) n (%)
TEAE: Surgical and medicinal procedures (LSF 10 mg OD n = 6): 1 (16.7) n (%)
